Assay: Agonist activity at human IP receptor in human platelets assessed as inhibition of ADP-induced platelet aggregation

Row | SMILES | IC50 [nM]
1 | COc1ccc(-c2c(-c3ccccc3)cnn(CC3CCc4c(cccc4OCC(=O)O)C3)c2=O)cc1 (centres undefined) | 330
2 | O=C(O)COc1cccc2c1CCC(Cn1ncc(-c3ccccc3)c(-c3ccc(F)cc3)c1=O)C2 (centres undefined) | 230
3 | COc1cccc(-c2cnn(CC3CCc4c(cccc4OCC(=O)O)C3)c(=O)c2-c2ccccc2)c1F (centres undefined) | 64
4 | O=C(O)COc1cccc2c1CCC(Cn1ncc(-c3cccc(F)c3F)c(-c3ccc(F)cc3)c1=O)C2 (centres undefined) | 62
5 | O=C(O)COc1cccc2c1CC[C@@H](Cn1ncc(-c3cccc(F)c3F)c(-c3ccc(F)cc3)c1=O)C2 | 62
6 | O=C(O)COc1cccc2c1CCC(Cn1ncc(-c3cccc(F)c3F)c(-c3ccccc3)c1=O)C2 (centres undefined) | 87
7 | O=C(O)COc1cccc2c1CCC(Cn1ncc(-c3ccccc3)c(-c3ccccc3)c1=O)C2 (centres undefined) | 325
8 | O=C(O)COc1cccc2c1CCC(Cn1ncc(-c3cccc(F)c3)c(-c3ccccc3)c1=O)C2 (centres undefined) | 191
9 | O=C(O)COc1cccc2c1CCC(Cn1ncc(-c3ccccc3F)c(-c3ccccc3)c1=O)C2 (centres undefined) | 220
